From ChEMBL document CHEMBL5385912, “Macrocycles and Acyclic Cucurbit[n]urils as Pseudo[2]catenane Partners for Long-Acting Neuromuscular Blocks and Rapid Reversal In Vivo” (J Med Chem, 2024) come the findings set out here.

Broadly, the solubility is the dissolved amount per volume that the medium holds. The term MTD denotes the largest dose that counted as tolerated.

The source made the active and inactive calls. No cut-off for these calls is given here.

The subject of series [1] is Rattus norvegicus. Description: Reversal of 2,27-dioxa-11,18,36,43-tetraza-8,21,33,46-tetrazoniaundecacyclo[46.2.2.23,6.213,16.223,26.228,31.238,41.18,11.118,21.133,36.143,46]hexahexaconta-1(50),3,5,8(64),9,13(63),14,16(62),19,21(61),23,25,28,30,33(56),34,38,40,44,46(53),48,51,54,57,59,65-hexacosaene tetrachloride induced neuromuscular block in Sprague-Dawley rat assessed as recovery time at 0.36 mg/kg, iv. It is filed as functional.

Series [2] deals with Erythrocyte. Description: Hemolysis in human RBC. It is filed as toxicity, cell-based.
Series [3] has as its system Erythrocyte. Description: Hemolysis in rat RBC. It is filed as toxicity, cell-based.
Series [4] has as its system Rattus norvegicus. Description: Reversal of 2,27-dioxa-11,18,36,43-tetraza-8,21,33,46-tetrazoniaundecacyclo[46.2.2.23,6.213,16.223,26.228,31.238,41.18,11.118,21.133,36.143,46]hexahexaconta-1(50),3,5,8(64),9,13(63),14,16(62),19,21(61),23,25,28,30,33(56),34,38,40,44,46(53),48,51,54,57,59,65-hexacosaene tetrachloride induced neuromuscular block in Sprague-Dawley rat assessed as recovery time at 10 mg/kg, iv. It is filed as functional.

Series [5] can be described thus: Solubility of compound in phosphate buffer. It is filed as physicochemical.
A short description of series [6]: Toxicity in ICR mouse assessed as liver abnormality at 200 to 400 mg/kg after 14 days by H and E staining based optical microscopic analysis. It is filed as organism-based. The conditions noted are these: in vivo, 336 h, dose 200-400 mg/kg, time 14 day.
A short description of series [7]: Toxicity in ICR mouse assessed as lung abnormality at 200 to 400 mg/kg after 14 days by H and E staining based optical microscopic analysis. It is filed as organism-based. As to conditions: in vivo, 336 h, dose 200-400 mg/kg, time 14 day.
A further series relates to L02. Put plainly: Cytotoxicity against L02 cells at 512 ug/ml incubated for 24 hrs by CCK8 assay. It is filed as toxicity, cell-based. The conditions noted are these: human, l02, 24 h, dose 512 µg/ml. On the technique in general: Formazan colour is commonly taken as a measure of viable cells.
The nature of series [8]: Toxicity in ICR mouse assessed as heart abnormality at 200 to 400 mg/kg after 14 days by H and E staining based optical microscopic analysis. It is filed as organism-based. As to conditions: in vivo, 336 h, dose 200-400 mg/kg, time 14 day.
Series [9] is described as follows: Toxicity in ICR mouse assessed as maximal tolerated dose. The conditions noted are these: in vivo.
Series [10] in a line: Toxicity in ICR mouse assessed as weight loss at 400 mg/kg, iv measured after 1 day. It is filed as organism-based. The conditions noted are these: in vivo, 24 h.
A short description of series [11]: Toxicity in ICR mouse assessed as kidney abnormality at 200 to 400 mg/kg after 14 days by H and E staining based optical microscopic analysis. It is filed as organism-based. As to conditions: in vivo, 336 h, dose 200-400 mg/kg, time 14 day.
Series [12] relates to Rattus norvegicus. Put plainly: Reversal of 2,27-dioxa-11,18,36,43-tetraza-8,21,33,46-tetrazoniaundecacyclo[46.2.2.23,6.213,16.223,26.228,31.238,41.18,11.118,21.133,36.143,46]hexahexaconta-1(50),3,5,8(64),9,13(63),14,16(62),19,21(61),23,25,28,30,33(56),34,38,40,44,46(53),48,51,54,57,59,65-hexacosaene tetrachloride induced neuromuscular block in Sprague-Dawley rat assessed as recovery time at 50 mg/kg, iv after 1 min. It is filed as functional.

A further series has as its system H9c2. Description: Cytotoxicity against rat H9C2 cells at 512 ug/ml incubated for 24 hrs by CCK8 assay. It is filed as toxicity, cell-based. As to conditions: h9c2, 24 h, dose 512 µg/ml.
The nature of series [13]: Toxicity in ICR mouse assessed as spleen abnormality at 200 to 400 mg/kg after 14 days by H and E staining based optical microscopic analysis. It is filed as organism-based. As to conditions: in vivo, 336 h, dose 200-400 mg/kg, time 14 day.
Series [14] deals with Rattus norvegicus. Description: Reversal of 2,27-dioxa-11,18,36,43-tetraza-8,21,33,46-tetrazoniaundecacyclo[46.2.2.23,6.213,16.223,26.228,31.238,41.18,11.118,21.133,36.143,46]hexahexaconta-1(50),3,5,8(64),9,13(63),14,16(62),19,21(61),23,25,28,30,33(56),34,38,40,44,46(53),48,51,54,57,59,65-hexacosaene tetrachloride induced neuromuscular block in Sprague-Dawley rat assessed as recovery time at 2.5 mg/kg, iv. It is filed as functional.

In series [15] the test system is Rattus norvegicus. Put plainly: Reversal of 2,27-dioxa-11,18,36,43-tetraza-8,21,33,46-tetrazoniaundecacyclo[46.2.2.23,6.213,16.223,26.228,31.238,41.18,11.118,21.133,36.143,46]hexahexaconta-1(50),3,5,8(64),9,13(63),14,16(62),19,21(61),23,25,28,30,33(56),34,38,40,44,46(53),48,51,54,57,59,65-hexacosaene tetrachloride induced neuromuscular block in Sprague-Dawley rat assessed as recovery time at 20 mg/kg, iv. It is filed as functional.

Series [16] has as its system Rattus norvegicus. Description: Neuromuscular blocking in Sprague-Dawley rat assessed as duration time to TOF ratio of 0.25 recovery at 3.5 mg/kg, iv. It is filed as functional.
A short description of series [17]: Solubility of compound in Na2HPO4/NaH2PO4 buffer. It is filed as physicochemical.
Series [18] has as its system Rattus norvegicus. Put plainly: Neuromuscular blocking in Sprague-Dawley rat assessed as inhibition of electrical stimulation induced twitch amplitude at 0.8 mg/kg, iv. It is filed as functional, organism-based.
Series [19] is filed under the species Rattus norvegicus. Put plainly: Neuromuscular blocking in Sprague-Dawley rat assessed as inhibition of electrical stimulation induced twitch amplitude. It is filed as functional.
Series [20] can be described thus: Toxicity in Sprague-Dawley rat at 9 mg/kg, iv measured after 1 hr. It is filed as organism-based. As to conditions: in vivo.
Series [21] relates to Rattus norvegicus. Put plainly: Neuromuscular blocking in Sprague-Dawley rat assessed as duration time to TOF ratio of 0.25 recovery at 2.4 mg/kg, iv. It is filed as functional.
The test system of series [22] is Rattus norvegicus. Description: Neuromuscular blocking in Sprague-Dawley rat assessed as duration time to TOF ratio of 0.25 recovery at 1.6 mg/kg, iv. It is filed as functional.

On to `CN(C)C(=O)Oc1cccc([N+](C)(C)C)c1` [NEOSTIGMINE], for which the Time in the series with Rattus norvegicus [1] is recorded as 694 s.
On to `C[C@]12N3Cc4c(c(OCCCC(=O)[O-])c5ccccc5c4OCCCC(=O)[O-])CN1C(=O)N1CN4C(=O)N5CN6C(=O)N7CN8C(=O)N9Cc%10c(c(OCCCC(=O)[O-])c%11ccccc%11c%10OCCCC(=O)[O-])CN%10C(=O)N(CN%11C(=O)N(CN%12C(=O)N(CN(C3=O)[C@]12C)[C@@H]4[C@H]%125)[C@@H]6[C@H]%117)[C@]8(C)[C@@]9%10C.[Na+].[Na+].[Na+].[Na+]`, for which the Activity entry (in the series with Erythrocyte [2]; with Erythrocyte [3]; in series [6]; in series [7]; in the series on L02; in series [8]) was “Non-Toxic” each time. For the same molecule, the Activity entry in series [10] is listed as “Toxic”; in series [11] it was “Non-Toxic”; with Rattus norvegicus [12] it was 100%; in the series with H9c2 it was “Non-Toxic”; in [13] it was “Non-Toxic”. The Time came out at 16 s in the series on Rattus norvegicus [4], 205 s in the series with Rattus norvegicus [14] and 17 s in the series with Rattus norvegicus [15]. In series [5], the concentration in solution (solubility) was 293 mg/mL. Moreover, the MTD in [9] was 550 mg/kg.
With `C[C@]12N3Cc4c(c(OCCCS(=O)(=O)[O-])c5ccccc5c4OCCCS(=O)(=O)[O-])CN1C(=O)N1CN4C(=O)N5CN6C(=O)N7CN8C(=O)N9Cc%10c(c(OCCCS(=O)(=O)[O-])c%11ccccc%11c%10OCCCS(=O)(=O)[O-])CN%10C(=O)N(CN%11C(=O)N(CN%12C(=O)N(CN(C3=O)[C@]12C)[C@@H]4[C@H]%125)[C@@H]6[C@H]%117)[C@]8(C)[C@@]9%10C.[Na+].[Na+].[Na+].[Na+]`, the Time with Rattus norvegicus [4] was determined as 18 s; in the series with Rattus norvegicus [14], 215 s. Moreover, in [5], the concentration in solution (solubility) came to 29.5 mg/mL.
In the case of `C=CC[N+]1([C@H]2C[C@H]3[C@@H]4CC[C@H]5C[C@H](O)[C@@H](N6CCOCC6)C[C@]5(C)[C@H]4CC[C@]3(C)[C@H]2OC(C)=O)CCCC1` [ROCURONIUM], the Time with Rattus norvegicus [16] is 497 s.
Regarding `[Cl-].[Cl-].[Cl-].[Cl-].c1cc2ccc1Cn1cc[n+](c1)Cc1ccc(cc1)-c1ccc(cc1)C[n+]1ccn(c1)Cc1ccc(cc1)Cn1cc[n+](c1)Cc1ccc(cc1)-c1ccc(cc1)C[n+]1ccn(c1)C2`, in series [17], the solubility came out at 21 mg/mL. Besides, in the series with Rattus norvegicus [18], the result was inactive. For the same molecule, the ED90 in the series listed under Rattus norvegicus [19] worked out at 1.07 mg/kg.
For the molecule `C[C@]12N3Cc4c(OCCCC(=O)[O-])ccc(OCCCC(=O)[O-])c4CN1C(=O)N1CN4C(=O)N5CN6C(=O)N7CN8C(=O)N9Cc%10c(OCCCC(=O)[O-])ccc(OCCCC(=O)[O-])c%10CN%10C(=O)N(CN%11C(=O)N(CN%12C(=O)N(CN(C3=O)[C@]12C)[C@@H]4[C@H]%125)[C@@H]6[C@H]%117)[C@]8(C)[C@@]9%10C.[Na+].[Na+].[Na+].[Na+]`, the values for the Time in the series with Rattus norvegicus [4] and in the series with Rattus norvegicus [14] were 18 s and 411 s, respectively. Further, the solubility in series [5] stood at 549 mg/mL.
With `[Cl-].[Cl-].[Cl-].[Cl-].c1cc2ccc1Cn1cc[n+](c1)Cc1ccc(cc1)Oc1ccc(cc1)C[n+]1ccn(c1)Cc1ccc(cc1)Cn1cc[n+](c1)Cc1ccc(cc1)Oc1ccc(cc1)C[n+]1ccn(c1)C2`, the Activity result (with Erythrocyte [2]; in the series on Erythrocyte [3]; in the series on L02; in series [20]; in the series on H9c2) was “Non-Toxic” in each case. In addition, the solubility in [17] worked out at 78 mg/mL. The Time was 4965 s in the series with Rattus norvegicus [21] and 1785 s in the series with Rattus norvegicus [22]. The ED90 in the series listed under Rattus norvegicus [19] was 0.8 mg/kg.
As to `c1cc2ccc1Cn1cc[n+](c1)Cc1ccc(cc1)C[n+]1ccn(c1)Cc1ccc(cc1)O2`, the outcome in the series with Rattus norvegicus [18] was inactive.
The same measure, in the same setting: the same measure for `COc1ccc(Cn2cc[n+](Cc3ccc(C[n+]4ccn(Cc5ccc(OC)cc5)c4)cc3)c2)cc1`: “inactive”; for `c1cc2ccc1C[n+]1ccc(cc1)-c1cc[n+](cc1)Cc1ccc(cc1)C[n+]1ccc(cc1)-c1cc[n+](cc1)C2`: “inactive”.
In series [17], `[Cl-].[Cl-].[Cl-].[Cl-].c1cc2ccc1Cc1ccc(cc1)C[n+]1ccn(c1)Cc1ccc(cc1)Cn1cc[n+](c1)Cc1ccc(cc1)Cc1ccc(cc1)C[n+]1ccn(c1)Cc1ccc(cc1)Cn1cc[n+](c1)C2` gave a solubility of 58 mg/mL. Besides, the outcome in the series on Rattus norvegicus [18] was inactive. For the same molecule, the ED90 in the series filed under Rattus norvegicus [19] worked out at 1.16 mg/kg.
`c1ccc(C[n+]2ccn(Cc3ccc(Oc4ccc(Cn5cc[n+](Cc6ccccc6)c5)cc4)cc3)c2)cc1`: the result with Rattus norvegicus [18] was inactive.
As for `Cc1c(C)c(OCCCC(=O)[O-])c2c(c1OCCCC(=O)[O-])CN1C(=O)N3CN4C(=O)N5CN6C(=O)N7CN8C(=O)N9Cc%10c(c(OCCCC(=O)[O-])c(C)c(C)c%10OCCCC(=O)[O-])CN%10C(=O)N(CN%11C(=O)N(CN%12C(=O)N(CN%13C(=O)N(C2)[C@]1(C)[C@]%133C)[C@@H]4[C@@H]5%12)[C@@H]6[C@@H]7%11)[C@]8(C)[C@]%109C.[Na+].[Na+].[Na+].[Na+]`, the Time with Rattus norvegicus [4] is reported as 16 s; in the series on Rattus norvegicus [14], 259 s. This molecule also registered a solubility in series [5] of 400 mg/mL.
Take `O=C(O)CCSC[C@H]1O[C@@H]2O[C@H]3[C@H](O)[C@@H](O)[C@@H](O[C@H]4[C@H](O)[C@@H](O)[C@@H](O[C@H]5[C@H](O)[C@@H](O)[C@@H](O[C@H]6[C@H](O)[C@@H](O)[C@@H](O[C@H]7[C@H](O)[C@@H](O)[C@@H](O[C@H]8[C@H](O)[C@@H](O)[C@@H](O[C@H]9[C@H](O)[C@@H](O)[C@@H](O[C@H]1[C@H](O)[C@H]2O)O[C@@H]9CSCCC(=O)O)O[C@@H]8CSCCC(=O)O)O[C@@H]7CSCCC(=O)O)O[C@@H]6CSCCC(=O)O)O[C@@H]5CSCCC(=O)O)O[C@@H]4CSCCC(=O)O)O[C@@H]3CSCCC(=O)O`: the Time with Rattus norvegicus [15] amounted to 1175 s.
